Experimental data from the supplement of paper PMC10307832.

How the values were obtained:
Test in all cases: relative viability (nuclei count vs DMSO), 5 days (fraction); higher = more cells survive
Erlotinib + Linsitinib = compound: C#Cc1cccc(Nc2ncnc3cc(OCCOC)c(OCCOC)cc23)c1 [Erlotinib] + C[C@]1(O)C[C@@H](c2nc(-c3ccc4ccc(-c5ccccc5)nc4c3)c3c(N)nccn32)C1 [Linsitinib] (partner 1 µM)
How it was run: (§1)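 Values are medians from duplicate plates. Each reflects relative viability, defined as the nuclei count of treated wells over that of vehicle wells. Lung cancer cell lines in 1536-well plates were pin-tool dosed one day after seeding with one drug alone or with a fixed anchor-drug dose plus five library-drug doses (not always all listed) in √10 steps, then fixed, stained and imaged at 4× after 5 days.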

AT9283 + Olaparib = compound: O=C(Nc1c[nH]nc1-c1nc2ccc(CN3CCOCC3)cc2[nH]1)NC1CC1 [AT9283] + O=C(c1cc(Cc2n[nH]c(=O)c3ccccc23)ccc1F)N1CCN(C(=O)C2CC2)CC1 [Olaparib] (partner 8 µM)
How it was run: as §1

AT9283 + Tozasertib = compound: O=C(Nc1c[nH]nc1-c1nc2ccc(CN3CCOCC3)cc2[nH]1)NC1CC1 [AT9283] + Cc1cc(Nc2cc(N3CCN(C)CC3)nc(Sc3ccc(NC(=O)C4CC4)cc3)n2)n[nH]1 [Tozasertib] (partner 0.1 µM)
How it was run: as §1

AT9283 + Pictilisib = compound: O=C(Nc1c[nH]nc1-c1nc2ccc(CN3CCOCC3)cc2[nH]1)NC1CC1 [AT9283] + CS(=O)(=O)N1CCN(Cc2cc3nc(-c4cccc5[nH]ncc45)nc(N4CCOCC4)c3s2)CC1 [Pictilisib] (partner 1 µM)
How it was run: as §1

Erlotinib + AZD7762 = compound: C#Cc1cccc(Nc2ncnc3cc(OCCOC)c(OCCOC)cc23)c1 [Erlotinib] + NC(=O)Nc1cc(-c2cccc(F)c2)sc1C(=O)N[C@H]1CCCNC1 [AZD7762] (partner 0.2 µM)
How it was run: as §1

NCI-H441
relative viability (Erlotinib + Linsitinib; first compound 0.02 µM): 0.686
relative viability (Erlotinib + Linsitinib; first compound 0.2 µM): 0.746
relative viability (Erlotinib + Linsitinib; first compound 0.6325 µM): 0.569
relative viability (Erlotinib + Linsitinib; first compound 2 µM): 0.326
relative viability (AT9283 + Olaparib; first compound 0.003 µM): 0.557
relative viability (AT9283 + Olaparib; first compound 0.03 µM): 0.504
relative viability (AT9283 + Olaparib; first compound 0.09487 µM): 0.417
relative viability (AT9283 + Olaparib; first compound 0.3 µM): 0.319
relative viability (AT9283 + Tozasertib; first compound 0.003 µM): 0.707
relative viability (AT9283 + Tozasertib; first compound 0.03 µM): 0.715
relative viability (AT9283 + Tozasertib; first compound 0.09487 µM): 0.361
relative viability (AT9283 + Tozasertib; first compound 0.3 µM): 0.31
relative viability (AT9283 + Pictilisib; first compound 0.003 µM): 0.359
relative viability (AT9283 + Pictilisib; first compound 0.03 µM): 0.469
relative viability (AT9283 + Pictilisib; first compound 0.09487 µM): 0.138
relative viability (AT9283 + Pictilisib; first compound 0.3 µM): 0.186
relative viability (Erlotinib + AZD7762; first compound 0.02 µM): 1.2
relative viability (Erlotinib + AZD7762; first compound 0.2 µM): 1.06
relative viability (Erlotinib + AZD7762; first compound 0.6325 µM): 1.1
relative viability (Erlotinib + AZD7762; first compound 2 µM): 1.11
